The target in the first test is T1, F508del (Homo sapiens, UniProt P13569, DEL508-508).
T1 construct: expressed in transfected cells
T1 sequence (P13569 with tags, fused parts or gaps DEL508-508): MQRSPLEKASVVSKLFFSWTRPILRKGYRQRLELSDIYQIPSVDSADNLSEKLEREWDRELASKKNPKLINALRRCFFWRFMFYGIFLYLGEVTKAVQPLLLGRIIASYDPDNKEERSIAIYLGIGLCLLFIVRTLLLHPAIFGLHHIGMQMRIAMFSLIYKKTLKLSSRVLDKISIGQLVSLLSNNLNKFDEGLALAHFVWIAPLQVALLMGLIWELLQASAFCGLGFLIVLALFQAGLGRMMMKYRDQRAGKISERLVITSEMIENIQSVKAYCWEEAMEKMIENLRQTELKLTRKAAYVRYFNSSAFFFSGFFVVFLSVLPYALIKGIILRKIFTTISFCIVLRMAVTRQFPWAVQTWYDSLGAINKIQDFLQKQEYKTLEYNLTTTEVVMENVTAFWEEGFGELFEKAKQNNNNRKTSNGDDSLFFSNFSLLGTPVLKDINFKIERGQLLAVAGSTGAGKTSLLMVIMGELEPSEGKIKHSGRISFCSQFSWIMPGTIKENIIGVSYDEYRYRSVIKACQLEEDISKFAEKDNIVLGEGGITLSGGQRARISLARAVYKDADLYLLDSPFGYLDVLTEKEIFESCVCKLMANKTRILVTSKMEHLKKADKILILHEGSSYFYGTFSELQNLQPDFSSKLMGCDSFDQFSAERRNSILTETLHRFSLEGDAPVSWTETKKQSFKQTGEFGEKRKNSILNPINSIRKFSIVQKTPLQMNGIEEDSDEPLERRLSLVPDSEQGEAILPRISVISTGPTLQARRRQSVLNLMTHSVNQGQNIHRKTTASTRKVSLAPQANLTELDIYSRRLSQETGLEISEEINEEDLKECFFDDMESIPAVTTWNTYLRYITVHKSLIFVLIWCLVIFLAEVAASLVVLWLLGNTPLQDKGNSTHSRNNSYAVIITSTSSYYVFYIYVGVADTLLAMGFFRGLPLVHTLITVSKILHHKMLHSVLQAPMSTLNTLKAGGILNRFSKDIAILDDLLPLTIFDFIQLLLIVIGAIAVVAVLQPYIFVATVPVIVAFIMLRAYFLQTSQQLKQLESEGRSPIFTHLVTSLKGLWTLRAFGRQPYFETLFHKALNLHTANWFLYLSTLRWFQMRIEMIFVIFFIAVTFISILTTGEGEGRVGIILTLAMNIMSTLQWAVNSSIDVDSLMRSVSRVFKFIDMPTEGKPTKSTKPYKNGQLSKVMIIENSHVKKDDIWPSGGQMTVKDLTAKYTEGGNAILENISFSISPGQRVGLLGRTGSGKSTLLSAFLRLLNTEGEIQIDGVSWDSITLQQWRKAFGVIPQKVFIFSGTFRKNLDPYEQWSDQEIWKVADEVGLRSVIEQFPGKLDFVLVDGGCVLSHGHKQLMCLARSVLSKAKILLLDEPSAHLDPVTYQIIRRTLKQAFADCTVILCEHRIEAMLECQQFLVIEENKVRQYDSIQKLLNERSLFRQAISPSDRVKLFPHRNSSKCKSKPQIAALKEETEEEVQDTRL
The test is described as follows: Protocol 2: FRET membrane potential optical assay (VIPR), identification of correction compounds. The format is cell-based. Conditions: F508del CFTR modulator activity; compounds of Table 1; read-out: EC30. The gist of the method:
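Single-addition HTS format: F508del-expressing NIH3T3 cells pre-incubated 16 hrs at 37° C. ± compound, with 27° C. culture as positive control. Channel activation by forskolin 10 μM and genistein 20 μM upon switch to gluconate bath, pH 7.4; read-out is FRET-based depolarization signal.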
For orientation: EC30 means the concentration needed for an effect of 30%. Regarding `CC1CN(c2ncc(-c3ccc(CO)cc3)cc2C(=O)NS(=O)(=O)c2cccc(N)n2)C(C)(C)C1` (stereo not drawn) [Compound 2088, N-[(6-amino-2-pyridyl)sulfonyl]-5-[4-(hydroxymethyl)phenyl]-2-(2,2,4-trimethylpyrrolidin-1-yl)pyridine-3-carboxamide], the EC30 lay in the range of 3 to 10 µM.
On the same count and under the same terms, the value for `CCCOc1ccc(C)cc1-c1ccc(C(=O)NS(=O)(=O)c2cccc(N)n2)c(N2C[C@@H](C)CC2(C)C)n1` [Compound 2085, N-[(6-amino-2-pyridyl)sulfonyl]-6-(5-methyl-2-propoxy-phenyl)-2-[(4S)-2,2,4-trimethylpyrrolidin-1-yl]pyridine-3-carboxamide] was under 3 µM.
On the same count and under the same terms, the value for `CC1CN(c2ncc(/C=C/C3CCCCC3)cc2C(=O)NS(=O)(=O)c2cccc(N)n2)C(C)(C)C1` (stereo not drawn) [Compound 2063, N-[(6-amino-2-pyridyl)sulfonyl]-5-[(E)-2-cyclohexylvinyl]-2-(2,2,4-trimethylpyrrolidin-1-yl)pyridine-3-carboxamide] was under 3 µM; that for `CC1CN(c2ncccc2C(=O)NS(=O)(=O)c2cccc(NCCc3ccncc3)n2)C(C)(C)C1` (stereo not drawn) [Compound 2735] was 3 to 10 µM; that for `C[C@@H]1CN(c2nc(C(C)(C)C)c(C(O)C(O)C(C)(C)C)cc2C(=O)NS(=O)(=O)c2cccc(N)n2)C(C)(C)C1` (stereo partly drawn) [Compound 2370] was under 3 µM.
Still for that read-out and setting: the value for `C[C@@H]1CN(c2nc(-c3cc(F)c(F)cc3F)ccc2C(=O)NS(=O)(=O)c2cccnc2N)C(C)(C)C1` [Compound 2035, N-[(2-amino-3-pyridyl)sulfonyl]-6-(2,4,5-trifluorophenyl)-2-[(4S)-2,2,4-trimethylpyrrolidin-1-yl]pyridine-3-carboxamide] was under 3 µM; that for `CC(C)=CCOc1cccc(S(=O)(=O)NC(=O)c2cccnc2N2CC(C)CC2(C)C)n1` (stereo not drawn) [Compound 2648, N—[[6-(3-methylbut-2-enoxy)-2-pyridyl]sulfonyl]-2-(2,2,4-trimethylpyrrolidin-1-yl)pyridine-3-carboxamide] was under 3 µM.
Take `CC1CN(c2ncccc2C(=O)NS(=O)(=O)c2cccc(N3CCN(c4cnccn4)CC3)n2)C(C)(C)C1` (stereo not drawn) [Compound 2254, N—[[6-(4-pyrazin-2-ylpiperazin-1-yl)-2-pyridyl]sulfonyl]-2-(2,2,4-trimethylpyrrolidin-1-yl)pyridine-3-carboxamide]: the EC30 lay within 3 to 10 µM.
As to `CC1CN(c2ncccc2C(=O)NS(=O)(=O)c2cccc(OCc3ccc4c(c3)OCO4)n2)C(C)(C)C1` (stereo not drawn) [Compound 2169, N—[[6-(1,3-benzodioxol-5-ylmethoxy)-2-pyridyl]sulfonyl]-2-(2,2,4-trimethylpyrrolidin-1-yl)pyridine-3-carboxamide], the EC30 was under 3 µM.
On to `Cc1ccc(OCc2ccccc2)cc1-c1cnc(N2CC(C)CC2(C)C)c(C(=O)NS(=O)(=O)c2cccc(N)n2)c1` (stereo not drawn) [Compound 2588, N-[(6-amino-2-pyridyl)sulfonyl]-5-(5-benzyloxy-2-methyl-phenyl)-2-(2,2,4-trimethylpyrrolidin-1-yl)pyridine-3-carboxamide], for which the EC30 is under 3 µM.
Still for that read-out and setting: the value for `Cc1cc(F)cc(-c2ccc(C(=O)NS(=O)(=O)c3cccc(N)n3)c(N3C[C@@H](C)CC3(C)C)n2)c1` [Compound 2638, N-[(6-amino-2-pyridyl)sulfonyl]-6-(3-fluoro-5-methyl-phenyl)-2-[(4S)-2,2,4-trimethylpyrrolidin-1-yl]pyridine-3-carboxamide] was under 3 µM; that for `CC(C)Cc1ccc(C(=O)NS(=O)(=O)c2cccnc2N)c(N2C[C@@H](C)CC2(C)C)n1` [Compound 2150, N-[(2-amino-3-pyridyl)sulfonyl]-6-isobutyl-2-[(4S)-2,2,4-trimethylpyrrolidin-1-yl]pyridine-3-carboxamide] was under 3 µM.

The same test, now with this note: Table 3; compounds of Table 1 as modulators of CFTR activity; protocol not stated.
On to `Cc1cc(C)c(Cn2c(C(=O)NS(=O)(=O)c3ccccc3)cc3c(C)cccc32)c(C)c1` [Compound 143, N-(benzenesulfonyl)-4-methyl-1-[(2,4,6-trimethylphenyl)methyl]indole-2-carboxamide], for which the EC30 result is recorded as “+++ (“+++” means <3 uM)”.
Still for that read-out and setting: the value for `Cc1cc(C)cc(-c2nc(C(C)(C)C)ccc2C(=O)NS(=O)(=O)c2cccc(N)c2)c1` [Compound 52, N-(3-aminophenyl)sulfonyl-6-tert-butyl-2-(3,5-dimethylphenyl)pyridine-3-carboxamide] was “+++ (“+++” means <3 uM)”.
Still for that read-out and setting: the value for `COc1ccc(-c2nc(C(C)(C)C)ccc2C(=O)NS(=O)(=O)c2cccc(N)c2)cc1` [Compound 550, N-(3-aminophenyl)sulfonyl-6-tert-butyl-2-(4-methoxyphenyl)pyridine-3-carboxamide] was “++ (“++” means between 3 uM and 10 uM)”; that for `Cc1cccc(C)c1Cn1nc(C(C)(C)C)cc1C(=O)NS(=O)(=O)c1ccccc1N` [Compound 88, N-(2-aminophenyl)sulfonyl-5-tert-butyl-2-[(2,6-dimethylphenyl)methyl]pyrazole-3-carboxamide] was “+++ (“+++” means <3 uM)”; that for `CC1CN(c2nc(-c3ccc(NC(C)C)nc3)ccc2C(=O)NS(=O)(=O)c2cccc(N)n2)C(C)(C)C1` (stereo not drawn) [Compound 437, N-[(6-amino-2-pyridyl)sulfonyl]-6-[16-(isopropylamino)-3-pyridyl]-2-(2,2,4-trimethylpyrrolidin-1-yl)pyridine-3-carboxamide] was “+++ (“+++” means <3 uM)”.
`Cc1cc(C)c(CN2Cc3ccccc3C2C(=O)NS(=O)(=O)c2ccccc2)c(C)c1` (stereo not drawn) [Compound 6, N-(benzenesulfonyl)-2-[(2,4,6-trimethylphenyl)methyl]isoindoline-1-carboxamide]: the EC30 entry is recorded as “+++ (“+++” means <3 uM)”.
The same measure, in the same setting: the value for `Cc1cccc(C)c1Oc1nc(-c2cc(F)cc(OCC(C)C)c2)ccc1C(=O)NS(=O)(=O)c1ccn[nH]1` [Compound 671, 2-(2,6-dimethylphenoxy)-6-(3-fluoro-5-isobutoxy-phenyl)-N-(1H-pyrazol-5-ylsulfonyl)pyridine-3-carboxamide] was “+++ (“+++” means <3 uM)”; that for `CCc1ccc(-c2nc(C(C)(C)C)ccc2C(=O)NS(=O)(=O)c2cccc(N)c2)cc1` [Compound 359, N-(3-aminophenyl)sulfonyl-6-tert-butyl-2-(4-ethylphenyl)pyridine-3-carboxamide] was “+++ (“+++” means <3 uM)”.
Same read-out and setting: next, `CC(C)COc1cc(F)cc(-c2ccc(C(=O)NS(=O)(=O)c3cccc(N)n3)c(N3CCCCC3C)n2)c1` (stereo not drawn) [Compound 425, N-[(6-amino-2-pyridyl)sulfonyl]-6-(3-fluoro-5-isobutoxy-phenyl)-2-(2-methyl-1-piperidyl)pyridine-3-carboxamide]: “+++ (“+++” means <3 uM)”; `Cc1cc(C)c(Oc2nc(-c3cccc(C(F)(F)F)c3)ccc2C(=O)NS(=O)(=O)c2cccc(N)n2)c(C)c1` [Compound 709, N-[(6-amino-2-pyridyl)sulfonyl]-6-[13-(trifluoromethyl)phenyl]-2-(2,4,6-trimethylphenoxy)pyridine-3-carboxamide]: “+++ (“+++” means <3 uM)”.
Same read-out and setting: next, `CCOc1cc(F)cc(-c2ccc(C(=O)NS(=O)(=O)c3ccn[nH]3)c(N3[C@H](C)CC[C@@H]3C)n2)c1` [Compound 382, 2-[(2R,5S)-2,5-dimethylpyrrolidin-1-yl]-6-(3-ethoxy-5-fluoro-phenyl)-N-(1H-pyrazol-5-ylsulfonyl)pyridine-3-carboxamide]: “+++ (“+++” means <3 uM)”.
Regarding `CCOc1cccc2c1CN(Cc1c(C)cc(C)cc1C)C2(C)C(=O)NS(=O)(=O)c1cccnc1OC` (stereo not drawn) [Compound 648, 4-ethoxy-N-[(2-methoxy-3-pyridyl)sulfonyl]-1-methyl-2-[(2,4,6-trimethylphenyl)methyl]isoindoline-1-carboxamide], the EC30 entry is given as “+++ (“+++” means <3 uM)”.
Same read-out and setting: the value for `Cc1cc(C)c(Oc2nc(-c3cc(F)cc(OCC(C)C)c3)ccc2C(=O)NS(=O)(=O)c2cncc(N)n2)c(C)c1` [Compound 586, N-(6-aminopyrazin-2-yl)sulfonyl-6-(3-fluoro-5-isobutoxy-phenyl)-2-(2,4,6-trimethylphenoxy)pyridine-3-carboxamide] was “+++ (“+++” means <3 uM)”; that for `CC(C)Oc1ccc(-c2ccc(C(=O)NS(=O)(=O)c3cccc(N)n3)c(N3CC[C@H](C)C3(C)C)n2)cn1` [Compound 557, N-[(6-amino-2-pyridyl)sulfonyl]-6-(6-isopropoxy-3-pyridyl)-2-[(3S)-2,2,3-trimethylpyrrolidin-1-yl]pyridine-3-carboxamide] was “+++ (“+++” means <3 uM)”; that for `Cc1cc(C)c(CN2Cc3cccc(O)c3C2(C)C(=O)NS(=O)(=O)c2cccc(N)n2)c(C)c1` (stereo not drawn) [Compound 394, N-[(6-amino-2-pyridyl)sulfonyl]-7-hydroxy-1-methyl-2-[(2,4,6-trimethylphenyl)methyl]isoindoline-1-carboxamide] was “+++ (“+++” means <3 uM)”.
The same measure, in the same setting: the value for `CC(C)c1ccc(-c2ccc(C(=O)NS(=O)(=O)c3cccc(N)n3)c(N3C[C@@H](C)CC3(C)C)n2)cc1` [Compound 630, N-[(6-amino-2-pyridyl)sulfonyl]-6-(4-isopropylphenyl)-2-[(4S)-2,2,4-trimethylpyrrolidin-1-yl]pyridine-3-carboxamide] was “+++ (“+++” means <3 uM)”.
Same read-out and setting: the value for `COc1ncc(-c2ccc(C(=O)NS(=O)(=O)c3cccc(N)n3)c(Oc3c(C)cc(C)cc3C)n2)cc1F` [Compound 612, N-[(6-amino-2-pyridyl)sulfonyl]-6-(5-fluoro-6-methoxy-3-pyridyl)-2-(2,4,6-trimethylphenoxy)pyridine-3-carboxamide] was “+++ (“+++” means <3 uM)”; that for `CC(C)COc1cc(F)cc(-c2ccc(C(=O)NS(=O)(=O)c3cccc(N)n3)c(N3CC4(CCC4)C3)n2)c1` [Compound 527, N-[(6-amino-2-pyridyl)sulfonyl]-2-(6-azaspiro[3.3]heptan-6-yl)-6-(3-fluoro-5-isobutoxy-phenyl)pyridine-3-carboxamide] was “+++ (“+++” means <3 uM)”.
